Experimental data published in patent publication EP0625155B1, “PYRROLOIMIDAZOLYL AND IMIDAZOPYRIDINYL SUBSTITUTED 1H-BENZIMIDAZOLE DERIVATIVES AS AROMATASE INHIBITORS” (JANSSEN PHARMACEUTICA N.V., priority 1992, dated 1993).

Tests used:
[1] = system: Plasma estradiol; assay: Estradiol production in PMSG-injected rats; parameters: species or system Female Wistar rats; details: Rattus norvegicus; 1 mg/kg by gavage three days after 200 I.U. PMSG s.c.; plasma 2 h after administration; % non-recovered relative to untreated controls; read-out: Estradiol in vivo (% inhibition) 1 mg/kg / 2h
Experimental: Female Wistar rats weighing 150 g were injected with 200 I.U. Pregnant Mare's Serum Gonadotropin (PMSG) (Folligon®) subcutaneously. Three days later 1 mg/kg of the test compound, dissolved in 20% polyethyleneglycol in water, was administered by gavage. Control animals received 20% polyethyleneglycol only. Two hours after drug or placebo administration the animals were killed by decapitation and trunk blood was collected in heparinized tubes. Plasma estradiol was measured using a direct fluorescence immunoassay.

[2] = system: Plasma testosterone; assay: Testosterone production in LHRH/ACTH-injected rats; parameters: species or system Adult male Wistar rats; details: Rattus norvegicus, po; 10 mg/kg orally by gavage; LHRH/ACTH injected 1 h later; plasma 2 h after stimulation; % non-recovered relative to untreated controls; read-out: Testosterone in vivo (% inhibition) 10 mg/kg / 2h
Experimental: (§1) Adult male Wistar rats weighing 250 g were starved 24 h before the start of the experiment. Between 8 and 9 a.m. 10 mg/kg of the test compounds were administered orally by gavage. One hour later, the animals were injected intramuscularly with 40 ng of Luteinizing Hormone Releasing Hormone (LHRH) (Receptal®) and 25 µg of Adrenocorticotropic Hormone (ACTH1-24) (Cortrosyn®). To avoid stress, the animals were also anesthetized with 7.5 mg of pentobarbital. Two hours after stimulation, the animals were killed by decapitation and trunk blood was collected in heparinized tubes. […] Corticosterone was measured using radio immunoassay with ^3H-labelled corticosterone and dextrane-coated charcoal to separate bound and free steroid.

[3] = system: Corticosterone; assay: Corticosterone production in LHRH/ACTH-injected rats; parameters: species or system Adult male Wistar rats; details: Rattus norvegicus, po; 10 mg/kg orally by gavage; LHRH/ACTH injected 1 h later; plasma 2 h after stimulation; % non-recovered relative to untreated controls; read-out: Corticosterone in vivo (% inhibition) 10 mg/kg / 2h
Experimental: as §1

Row | Structure (SMILES) | inhibition at 1 mg/kg [1] | inhibition at 10 mg/kg [2] | inhibition at 10 mg/kg [3]
1 | c1cc2ncn(C3CCCCC3)c2cc1C1CCc2cncn21 (racemic) [compound 35] | 77% | 92% | 22%
2 | CCCCCn1cnc2ccc(C3CCc4cncn43)cc21 (racemic) [compound 31] | 69% | 91% | 28%
3 | c1ccc(-c2nc3cc(C4CCc5cncn54)ccc3[nH]2)cc1 (racemic) [compound 43] | 54% | 64% | 20%
4 | CCCCn1c(NC(=O)OC)nc2ccc(C3CCc4cncn43)cc21 (racemic) [compound 44] | 66% | 66% | 10%
5 | C=CCn1cnc2ccc(C3CCc4cncn43)cc21 (racemic) [compound 49] | 81% | 90% | 13%
6 | CCCCCCn1cnc2ccc(C3CCc4cncn43)cc21 (racemic) [compound 32] | 65% | 67% | 37%
7 | c1ccc(Cn2cnc3ccc(C4CCc5cncn54)cc32)cc1 (racemic) [compound 38] | 42% | 80% | 7%
8 | c1cc2ncn(C3CC3)c2cc1C1CCc2cncn21 (racemic) [compound 41, (±)-1-cyclopropyl-6-(6,7-dihydro-5H-pyrrolo[1,2-c]imidazol-5-yl)-1H-benzimidazole dinitrate] | 89% | 91% | 39%
9 | Cc1nc2cc(C3CCc4cncn43)ccc2[nH]1 (racemic) [compound 47, (±)-5-(6,7-dihydro-5H-pyrrolo-[1,2-c]imidazol-5-yl)-2-methyl-1H-benzimidazole] | 72% | 85% | 4%
10 | Cn1cnc2ccc(C3CCc4cncn43)cc21 (racemic) [compound 23] | 78% | 81% | 31%
11 | c1nc2cc(C3CCc4cncn43)ccc2[nH]1 (racemic) [compound 46] | 77% | 78% | 23%
12 | CCCCn1cnc2ccc(C3CCc4cncn43)cc21 (racemic) [compound 22] | 91% | 92.5% | 35%
13 | CCCCn1c(O)nc2ccc(C3CCc4cncn43)cc21 (racemic) [compound 48, (±)-1-butyl-6-(6,7-dihydro-5H-pyrrolo[1,2-c]imidazol-5-yl)-1H-benzimidazol-2-ol] | 77% | 93% | 4%
14 | CCn1cnc2ccc(C3CCc4cncn43)cc21 (racemic) [compound 39] | 90% | 93% | 39%
15 | c1ccc(-n2cnc3ccc(C4CCc5cncn54)cc32)cc1 (racemic) [compound 37] | 31% | 96% | 22%
16 | CCCCn1c(CC)nc2ccc(C3CCc4cncn43)cc21 (racemic) [compound 34] | 80% | 12% | 21%
17 | CC(C)n1cnc2ccc(C3CCc4cncn43)cc21 (racemic) [compound 42] | 93% | 98% | 33%
18 | CCCn1cnc2ccc(C3CCc4cncn43)cc21 (racemic) [compound 33] | 82% | 98% | 55%
